Data reported in article PMC7878891 (Scientific Reports, 2021).

Assays:
[1] = biological target: PL^proCoV2 (recombinant SARS-CoV-2 PL^pro) (Severe acute respiratory syndrome coronavirus 2, UniProt P0DTD1); assay type: biochemical; conditions: for IC50: read-out: IC50 toward PL^proCoV2
PL^proCoV2 = PL^proCoV2 (Severe acute respiratory syndrome coronavirus 2, UniProt P0DTD1); assay type: biochemical, SARS-CoV-2
[2] = biological target: PL^proSARS (recombinant SARS-CoV-1 PL^pro) (Severe acute respiratory syndrome coronavirus, UniProt P0C6X7); assay: biochemical; assay type: biochemical
PL^proSARS = PL^proSARS (Severe acute respiratory syndrome coronavirus, UniProt P0C6X7); assay type: biochemical, SARS-CoV-1
CoV2 = conditions: read-out: EC50 antiviral activity in cell-based assay; cited from earlier work

With `O=c1c2ccccc2[se]n1-c1ccccc1O` [1d, 2-(2-Hydroxyphenyl)-1,2-benzisoselenazol-3(2H)-one] the “Inhibition of PL^proCoV2 at 2 μM” value [1] was “fully” and the IC50 [1] was 236 nM.

In the case of `COc1ccccc1-n1[se]c2ccccc2c1=O` [1e, 2-(2-Methoxyphenyl)-1,2-benzisoselenazol-3(2H)-one], the “Inhibition of PL^proCoV2 at 2 μM” value [1] is reported as “fully” and the IC50 [1] is reported as 256 ± 35 nM.

`O=C(Nc1ccccc1O)c1ccccc1[Se][Se]c1ccccc1C(=O)Nc1ccccc1O` [2d, Bis[2-(2-hydroxyphenylcarbamoyl)phenyl] diselenide] gave an IC50 [1] of 339 ± 109 nM.

For `COc1ccccc1NC(=O)c1ccccc1[Se][Se]c1ccccc1C(=O)Nc1ccccc1OC` [2e, Bis[2-(2-methoxyphenylcarbamoyl)phenyl] diselenide], the IC50 [1] was 263 ± 121 nM.

In the case of `O=c1c2ccccc2[se]n1-c1ccccc1` [ebselen, 2-Phenyl-1,2-benzisoselenazol-3(2H)-one], the “Mechanism of inhibition of PL^proCoV2” value [1] is reported as “irreversible”, the “Reactivation of PL^proCoV2 after dialysis” value (PL^proCoV2) is reported as “reactivation was not observed” and the “Mechanism of inhibition of PL^proSARS” value [2] is reported as “irreversible”. For the same molecule, the IC50 ([2]; IC50 PL^proSARS 60 min incubation) was 8.45 ± 0.96 µM, the IC50 ([2]; IC50 PL^proSARS no incubation) was greater than 200 µM and the “Reactivation of PL^proSARS after dialysis” value (PL^proSARS) was “reactivation was not observed”. The EC50 (CoV2) was 4.67 µM.
